# Columns and labels:
# [1] = tested on: myelin reactive T cells in PBMCs; assay: EAA with positivity by Variance Evaluation Method or CPM Variance Method (clinical trials); assay type: cell-based, human; conditions: clinical trial population, RR-MS or CIS subjects
# From the text: The predetermined value may also be calculated using a Variance Evaluation Method as follows: • 1. EAAs may be run on a given patient population (minimum of 120 assays from 120 unique subjects) • 2. A “negative population” may be created by averaging all SI values<2.5 • 3. The Standard Deviation (SD) may be calculated for each peptide • 4. The following for each peptide may be then be calculated: • a. Average+1SD • b. Average+2SD • c. Average+3SD • 5. The following SIs may be considered above the predetermined value: • a. SI greater than or equal to the average+3SD • b. Any SI greater than or equal to 2.5
# The predetermined value may also be evaluated using a Counts per Minute (CPM) Variance Method. This algorithm may set a comprehensive cutoff for all peptides within a given assay. It may be calculated as follows: • 1. EAAs may be run and the CPM for all control (media only, no antigen) wells averaged. • 2. The SD for CPM of the control wells may then be calculated. • 3. The following may then be calculated for the control wells: • a. Average+1SD • b. Average+2SD • c. Average+3SD • 4. Any peptide with an average CPM greater than or equal to the average+3SD of the control wells may be considered above the predetermined value.
# Any peptide, either analyzed in an individual well or as averaged over wells run in triplicate, with an SI≧2.5, an SI≧average+3SD by the Variance Evaluation Method, or an SI≧average+3SD by the CPM variance method may be considered above the predetermined value, which may indicate a T cell(s) positive for reactivity to a peptide.
# The peptides of Example 3 have been tested in 429 EAAs in clinical trials as follows. […] Pre-Vaccine EAAs have 158 positive out of 387 assays (40.8%), with Relapse Remitting MS patients (RRMS) showing 150 positive of 368 assays (40.8%), and Clinically Isolated Syndrome (CIS) patients showing 8 positive of 19 assays (42.1%).
# Over the course of 6 months a study was conducted with 120 subjects meeting the criteria for the clinical trial.
# The above mentioned population of subjects was evaluated by EAA using the Variance Evaluation Method and CPM Variance Method as described above, and deemed eligible for vaccine production. Of the 120 attempts to manufacture vaccine, there were 2 shipping failures (blood was not received within our stated criteria), 1 culture was lost to contamination and 5 samples arrived with low cell volume/yield. Of the remaining 112 subjects, vaccine was successfully generated in 89 subjects, with 22 still in production (98.9% of eligible samples, 92.5% of all samples completed). From this, a positive EAA was deemed predictive of the ability to manufacture a vaccine to therapeutic dose by methods disclosed herein.
# myelin-reactive T cells = assay: Growth of myelin reactive T cell lines with low stimulation indices; assay type: cell-based, human
# From the text: Using the algorithms described above, statistically significant SIs as low as 1.3 have been observed and therefore should be able grow in response to antigen. To verify this ability, 5 cell lines across two patients are shown with an SI<2.0. The results are shown in Table 12 and FIG. 24, which indicate growth of these cell lines with only peptide antigen stimulation and common T cell growth factors.
# PBMC for subject 1042 were run in the EAA, and […] were positive, including PLPm18 with an SI of 1.8, PLPm26 with an SI of 2.5 and PLPm28 with an SI of 2.5. […] PBMC for subject 1014 were run in the EAA, and 4 mixes were positive, including MBPm14 with an SI of 1.7, PLPm17 with an SI of 1.7, PLPm28 with an SI of 2.2 and MOGm6 with an SI of 1.9. […]
# PBMCs were isolated via density gradient centrifugation from peripheral blood obtained through venipuncture into ACD-1 anticoagulant. PBMCs were plated at 2.5E+06 cells/well in 24 well plates. Antigen in the form of 16mer peptides identified in the EAA were added at a final concentration of 20 ug/ml. Interluekin-2 (IL-2) was added at a final concentration of 100 U/ml starting at 48 hours and IL-2 was added at the same concentration with each feeding or splitting of wells. Peptide restimulation in the presence of antigen presenting cells (APCs-autologous PBMCs irradiated at 3500 rad) was done at days 7, 14 and 21. Interleukin-15 (IL-15) was added at a final concentration of 5 ng/ml-20 ng/ml (lot specific) starting at day 14 and continued through the remainder of the culture period. Cells lines were all harvested by day 35 and had achieved expansions of 3.0-8.2 fold.
Substance,# of Subjects (frequency of identification) [1],% of Subjects (frequency of identification) [1],"Fold Expansion (myelin-reactive T cells; subject 1042, Day 0)","Viable Cell Count, Count/well (myelin-reactive T cells; subject 1042, Day 0)","Viable Cell Count, Total Cells (myelin-reactive T cells; subject 1042, Day 0)","Fold Expansion (myelin-reactive T cells; subject 1042, Day 14)","Viable Cell Count, Count/well (myelin-reactive T cells; subject 1042, Day 14)","Viable Cell Count, Total Cells (myelin-reactive T cells; subject 1042, Day 14)","Fold Expansion (myelin-reactive T cells; subject 1042, Day 19)","Viable Cell Count, Count/well (myelin-reactive T cells; subject 1042, Day 19)","Viable Cell Count, Total Cells (myelin-reactive T cells; subject 1042, Day 19)","Fold Expansion (myelin-reactive T cells; subject 1042, Day 26)","Viable Cell Count, Count/well (myelin-reactive T cells; subject 1042, Day 26)","Viable Cell Count, Total Cells (myelin-reactive T cells; subject 1042, Day 26)","Fold Expansion (myelin-reactive T cells; subject 1042, Day 33)","Viable Cell Count, Count/well (myelin-reactive T cells; subject 1042, Day 33)","Viable Cell Count, Total Cells (myelin-reactive T cells; subject 1042, Day 33)","Fold Expansion (myelin-reactive T cells; subject 1042, Day 35)","Viable Cell Count, Count/well (myelin-reactive T cells; subject 1042, Day 35)","Viable Cell Count, Total Cells (myelin-reactive T cells; subject 1042, Day 35)",also measured
PLPm17: mix of PLP 33 and PLP 34 (chain 1 QHQAHSLERVCHCLGK; chain 2 HSLERVCHCLGKWLGH),14,11.8%,,,,,,,,,,,,,,,,,,,"Fold Expansion (myelin-reactive T cells; subject 1014, Day 0): 1.0; Viable Cell Count, Count/well (myelin-reactive T cells; subject 1014, Day 0): 2.50E+06; Viable Cell Count, Total Cells (myelin-reactive T cells; subject 1014, Day 0): 2.25E+07; Fold Expansion (myelin-reactive T cells; subject 1014, Day 17): 0.7; Viable Cell Count, Count/well (myelin-reactive T cells; subject 1014, Day 17): 2.34E+06; Viable Cell Count, Total Cells (myelin-reactive T cells; subject 1014, Day 17): 2.11E+07; Fold Expansion (myelin-reactive T cells; subject 1014, Day 19): 1.2; Viable Cell Count, Count/well (myelin-reactive T cells; subject 1014, Day 19): 3.85E+06; Viable Cell Count, Total Cells (myelin-reactive T cells; subject 1014, Day 19): 3.47E+07; Fold Expansion (myelin-reactive T cells; subject 1014, Day 28): 3.5; Viable Cell Count, Count/well (myelin-reactive T cells; subject 1014, Day 28): 4.77E+06; Viable Cell Count, Total Cells (myelin-reactive T cells; subject 1014, Day 28): 1.05E+08; Fold Expansion (myelin-reactive T cells; subject 1014, Day 33): 2.9; Viable Cell Count, Count/well (myelin-reactive T cells; subject 1014, Day 33): 3.89E+06; Viable Cell Count, Total Cells (myelin-reactive T cells; subject 1014, Day 33): 8.56E+07; Fold Expansion (myelin-reactive T cells; subject 1014, Day 35): 4.7; Viable Cell Count, Count/well (myelin-reactive T cells; subject 1014, Day 35): 4.73E+06; Viable Cell Count, Total Cells (myelin-reactive T cells; subject 1014, Day 35): 1.42E+08"
PLPm18: mix of PLP 35 and PLP 36 (chain 1 RVCHCLGKWLGHPDKF; chain 2 CLGKWLGHPDKFVGIT),10,8.4%,1.0,2.50E+06,3.00E+07,0.4,9.60E+05,1.15E+07,0.8,1.97E+06,2.36E+07,1.2,1.50E+06,3.60E+07,3.0,3.76E+06,9.02E+07,3.0,3.74E+06,8.98E+07,
PLPm26: mix of PLP 51 and PLP 52 (chain 1 CADARMYGVLPWNAFP; chain 2 RMYGVLPWNAFPGKVC),28,23.5%,1.0,2.50E+06,3.00E+07,0.6,1.50E+06,1.80E+07,1.0,2.40E+06,2.88E+07,3.0,3.73E+06,8.95E+07,4.2,2.61E+06,1.25E+08,5.7,3.54E+06,1.70E+08,

# Source: patent US20100003228A1, “T-CELL VACCINE” (priority 2006, published 2010)
